Laboratory results published in US8815503B2, “Compositions and methods for immunostimulatory RNA oligonucleotides” (Rheinische Friedrich-Wilhelms-Universitat Bonn, priority 2005, dated 2014).

What follows are sequences tested on PBMC (assay: 193 ssRNA 4mer-motif library screen: IL-12 (IL-12p40) production in PBMC of six donors, poly-L-Arg complexation, ELISA at 44 hours, IL-12 index and adjusted IL-12 index). Settings: 193 ssRNA oligonucleotide library; data from six individual donors summarized; ascending order.
Format: cell-based, human
Set-up: key to Adjusted IL-12 index Mean: IL-12 index (ratio to 9.2sense) minus donor mean, averaged over 6 donors
Protocol: FIG. 9: PBMC of six different healthy donors were isolated and stimulated with poly-L-arginine complexed ssRNA oligonucleotides in duplicates. 44 hours after stimulation IL-12p40 production was assessed in supernatant via ELISA. For all tested ssRNA oligonucleotides (table 3), the mean values of the measured duplicates were normalized to the positive control ssRNA oligonucleotide 9.2sense (5′-AGCUUAACCUGUCCUUCAA (SEQ ID NO: 194)) by dividing the mean value of tested oligonucleotide by the mean value of 9.2sense (=IL-12 index of a given oligonucleotide). Next, all individual IL-12 indices were adjusted to the mean value of all IL-12 indices by subtracting the mean value of all IL-12 indices from the individual IL-12 index of a given oligonucleotide (=adjusted IL-12 index). Data from six individual donors were summarized and were assorted in ascending order displaying the corresponding SEM (for a complete listing including numerical data see table 4). FIG. 9A discloses SEQ ID NOS 460-509, respectively, in order of appearance. FIG. 9B discloses SEQ ID NOS 510-559, respectively, in order of appearance. FIG. 9C discloses SEQ ID NOS 560-609, respectively, in order of appearance. FIG. 9D discloses SEQ ID NOS 610-652, respectively, in order of appearance.
All 193 ssRNA oligonucleotides were tested on PBMC of six individual healthy donors using poly-L-Arg for complexation. At 44 hours after stimulation with RNA oligonucleotides, supernatants were collected and IL-12 production was measured by ELISA. Prior to statistical analysis the raw data were processed as follows: for each cell culture plate the mean IL-12 value of the experimental duplicates for each tested ssRNA oligonucleotide were normalized to the ssRNA oligonucleotide RNA9.2sense (5′-AGCUUAACCUGUCCUUCAA-3′ (SEQ ID NO: 194)). This standard RNA oligonucleotide was included as a positive control on all cell culture plates. Normalization was performed by calculating the ratio of IL-12 induced by the tested oligonucleotide and IL-12 induced by the standard oligonucleotide RNA9.2sense. Thus, for each tested oligonucleotide in an individual donor a mean ratio of IL-12 induction was obtained. In the following, this mean of the ratios is referred to as IL-12 index (one value of IL-12 index per donor). […] The corresponding IL-12 index of oligonucleotide ANP175 for donor 3 was calculated to be 1.90 (=1725 pg/ml divided by 908 pg/ml).
Next, the means of all IL-12 indices for every individual donor were calculated. Then the adjusted IL-12 indices were calculated as IL-12 index minus the mean of all IL-12 indices of one individual donor. […] The adjusted IL-12 index of ANP175 was calculated: 1.90 minus 0.44=1.46. The adjusted IL-12 indices from all six donors were summarized by calculating the means and the corresponding standard error of mean. The data are depicted in ascending order (FIG. 9A, B, C, D). The adjusted IL-12 indices of the top thirty ssRNA oligonucleotides of all six donors were compared using a two-tailed Student's t-test (FIG. 10). For most combinations tested, a significant difference was observed when the interval between the analyzed pairs was at least eight or nine places in the assortment.

Sequence | Adjusted IL-12 index Mean
AAAAAAAGGAGAAAAAAAA (RNA, backbone not given here) [ANP-Oligo 123] | −0.51
AAAAAAACUCCAAAAAAAA (RNA, backbone not given here) [ANP-Oligo 089] | −0.42
AAAAAAAACUUAAAAAAAA (RNA, backbone not given here) [ANP-Oligo 025] | −0.31
AAAAAAAUUAGAAAAAAAA (RNA, backbone not given here) [ANP-Oligo 183] | 0.27
AAAAAAAAGAUAAAAAAAA (RNA, backbone not given here) [ANP-Oligo 028] | −0.32
AAAAAAAUUUUAAAAAAAA (RNA, backbone not given here) [ANP-Oligo 193] | 0.62
AAAAAAAUACCAAAAAAAA (RNA, backbone not given here) [ANP-Oligo 149] | 0.27
AAAAAAAUCUGAAAAAAAA (RNA, backbone not given here) [ANP-Oligo 168] | 0.45
AAAAAAACAUGAAAAAAAA (RNA, backbone not given here) [ANP-Oligo 060] | −0.46
AAAAAAAAGUAAAAAAAAA (RNA, backbone not given here) [ANP-Oligo 010] | −0.16
AAAAAAACGUGAAAAAAAA (RNA, backbone not given here) [ANP-Oligo 084] | −0.2
AAAAAAAGUAUAAAAAAAA (RNA, backbone not given here) [ANP-Oligo 136] | 1.04
AAAAAAACGAGAAAAAAAA (RNA, backbone not given here) [ANP-Oligo 075] | −0.65
AAAAAAACAAUAAAAAAAA (RNA, backbone not given here) [ANP-Oligo 052] | −0.37
AAAAAAAAGGAAAAAAAAA (RNA, backbone not given here) [ANP-Oligo 009] | −0.66
AAAAAAAGAACAAAAAAAA (RNA, backbone not given here) [ANP-Oligo 098] | −0.6
AAAAAAACCGGAAAAAAAA (RNA, backbone not given here) [ANP-Oligo 069] | −0.64
AAAAAAAAGUGAAAAAAAA (RNA, backbone not given here) [ANP-Oligo 036] | −0.12
AAAAAAAGUACAAAAAAAA (RNA, backbone not given here) [ANP-Oligo 134] | 0.42
AAAAAAAGUGCAAAAAAAA (RNA, backbone not given here) [ANP-Oligo 140] | 0.99
AAAAAAAGCGCAAAAAAAA (RNA, backbone not given here) [ANP-Oligo 116] | −0.58
AAAAAAACUGCAAAAAAAA (RNA, backbone not given here) [ANP-Oligo 092] | 0
AAAAAAAGUUGAAAAAAAA (RNA, backbone not given here) [ANP-Oligo 144] | 4.39
AAAAAAAUGAGAAAAAAAA (RNA, backbone not given here) [ANP-Oligo 171] | 0.22
AAAAAAAAUUGAAAAAAAA (RNA, backbone not given here) [ANP-Oligo 048] | −0.35
AAAAAAAUCCUAAAAAAAA (RNA, backbone not given here) [ANP-Oligo 163] | −0.15
AAAAAAACGCGAAAAAAAA (RNA, backbone not given here) [ANP-Oligo 078] | −0.59

Sequence | Adjusted IL-12 index Mean
AAAAAAAUGUGAAAAAAAA (RNA, backbone not given here) [ANP-Oligo 180] | 1.31
AAAAAAAACAUAAAAAAAA (RNA, backbone not given here) [ANP-Oligo 016] | −0.37
AAAAAAAUCUUAAAAAAAA (RNA, backbone not given here) [ANP-Oligo 169] | 0.67
AAAAAAACUGGAAAAAAAA (RNA, backbone not given here) [ANP-Oligo 093] | −0.31
AAAAAAAACGAAAAAAAAA (RNA, backbone not given here) [ANP-Oligo 006] | −0.63
AAAAAAAGUGUAAAAAAAA (RNA, backbone not given here) [ANP-Oligo 142] | 1.23
AAAAAAAUACUAAAAAAAA (RNA, backbone not given here) [ANP-Oligo 151] | 0.3
AAAAAAAUAUUAAAAAAAA (RNA, backbone not given here) [ANP-Oligo 157] | 0.46
AAAAAAAGGCCAAAAAAAA (RNA, backbone not given here) [ANP-Oligo 125] | −0.54
AAAAAAAUUGCAAAAAAAA (RNA, backbone not given here) [ANP-Oligo 188] | 1.62
AAAAAAAUAAGAAAAAAAA (RNA, backbone not given here) [ANP-Oligo 147] | 0.27
AAAAAAAGCGGAAAAAAAA (RNA, backbone not given here) [ANP-Oligo 117] | −0.63
AAAAAAAUUUGAAAAAAAA (RNA, backbone not given here) [ANP-Oligo 192] | 0.65
AAAAAAAACUCAAAAAAAA (RNA, backbone not given here) [ANP-Oligo 023] | −0.41
AAAAAAAAUAUAAAAAAAA (RNA, backbone not given here) [ANP-Oligo 040] | −0.04
AAAAAAAUGUCAAAAAAAA (RNA, backbone not given here) [ANP-Oligo 179] | 0.9
AAAAAAAGUCUAAAAAAAA (RNA, backbone not given here) [ANP-Oligo 139] | 0.05
AAAAAAAAUCGAAAAAAAA (RNA, backbone not given here) [ANP-Oligo 042] | −0.64
AAAAAAAUCCGAAAAAAAA (RNA, backbone not given here) [ANP-Oligo 162] | −0.5
AAAAAAAAUCCAAAAAAAA (RNA, backbone not given here) [ANP-Oligo 041] | −0.48
AAAAAAAUCACAAAAAAAA (RNA, backbone not given here) [ANP-Oligo 158] | −0.39
AAAAAAACAUUAAAAAAAA (RNA, backbone not given here) [ANP-Oligo 061] | −0.23
AAAAAAACGCCAAAAAAAA (RNA, backbone not given here) [ANP-Oligo 077] | −0.62
AAAAAAAGAUCAAAAAAAA (RNA, backbone not given here) [ANP-Oligo 107] | −0.2
AAAAAAACAACAAAAAAAA (RNA, backbone not given here) [ANP-Oligo 050] | −0.64
AAAAAAAAUUCAAAAAAAA (RNA, backbone not given here) [ANP-Oligo 047] | −0.45
